Experimental data as given in patent US20040077580A1, “Antisense modulation of PI3K P85 Expression” (priority 2000, published 2004).
Strand notation (5' to 3'): a small letter for the sugar, then the base; units joined by * are phosphorothioate-linked, units joined directly phosphodiester-linked; [ ] holds rarer units or linkages, { } end groups; capitals alone tell only the bases. e = 2'-O-(2-methoxyethyl) (MOE); [5mC] = 5-methylcytosine; d = 2'-deoxy (DNA)

Key:
mouse PI3K p85 = assay: Inhibition of mouse PI3K p85 mRNA levels by antisense oligonucleotides, real-time quantitative RT-PCR; assay type: cell-based; parameters: concentration or dose not given beside the values; settings: chimeric phosphorothioate 2′-MOE gapmers, averaged from two experiments
Protocol: (§1) Cells were harvested 16 hours after oligonucleotide treatment.
Target sites are indicated by nucleotide numbers, as given in the sequence source reference (Genbank accession no. U50413; SEQ ID NO: 48), to which the oligonucleotide binds.
Cytidine residues are 5-methylcytidines throughout the oligonucleotides.
Data were obtained by real-time quantitative RT-PCR as described in other examples herein and are averaged from two experiments. […] If present, “N.D.” indicates “no data”.

human PI3K p85 RNA = assay: Inhibition of human PI3K p85 mRNA levels by antisense oligonucleotides, real-time quantitative PCR; assay type: cell-based; settings: oligonucleotide 150 nM
Protocol: as §1
Poly(A)+ mRNA was isolated according to Miura et al., Clin. Chem., 1996, 42, 1758-1764. Other methods for poly(A)+ mRNA isolation are taught in, for example, Ausubel, F. M. et al., Current Protocols in Molecular Biology, Volume 1, pp. 4.5.1-4.5.3, John Wiley & Sons, Inc., 1993. […] 60 μL lysis buffer (10 mM Tris-HCl, pH 7.6, 1 mM EDTA, 0.5 M NaCl, 0.5% NP-40, 20 mM vanadyl-ribonucleoside complex) was added to each well, the plate was gently agitated and then incubated at room temperature for five minutes. 55 μL of lysate was transferred to Oligo d(T) coated 96-well plates (AGCT Inc., Irvine Calif.). Plates were incubated for 60 minutes at room temperature, washed 3 times with 200 μL of wash buffer (10 mM Tris-HCl pH 7.6, 1 mM EDTA, 0.3 M NaCl). After the final wash, the plate was blotted on paper towels to remove excess wash buffer and then air-dried for 5 minutes. 60 μL of elution buffer (5 mM Tris-HCl pH 7.6), preheated to 70° C. was added to each well, the plate was incubated on a 90° C. hot plate for 5 minutes, and the eluate was then transferred to a fresh 96-well plate.
PI3K p85 probes and primers were designed to hybridize to the human PI3K p85 sequence, using published sequence information (GenBank accession number M61906, incorporated herein as SEQ ID NO: 1).
Target sites are indicated by nucleotide numbers, as given in the sequence source reference (Genbank accession no. M61906), to which the oligonucleotide binds. All compounds in Table 1 are oligodeoxynucleotides with phosphorothioate backbones (internucleoside linkages) throughout. […] Data are averages from two experiments. If present, “N.D.” indicates “no data”.
In accordance with the present invention, a second series of oligonucleotides targeted to human PI3K p85 were synthesized. Target sites are indicated by nucleotide numbers, as given in the sequence source reference (Genbank accession no. M61906), to which the oligonucleotide binds.
Cytidine residues in the 2′-MOE wings are 5-methylcytidines.
Data were obtained by real-time quantitative PCR as described in other examples herein and are averaged from two experiments. If present, “N.D.” indicates “no data”.

[1] = chimeric phosphorothioate oligonucleotides with 2′-MOE wings and deoxy gap, averaged from two experiments
[2] = phosphorothioate oligodeoxynucleotides, averages from two experiments

Substance | % Inhibition of PI3K p85 mRNA levels (human PI3K p85 RNA; [1]) | further results
atactgaagcgtaagccaac (eA*eT*eA*e[5mC]*eT*dG*dA*dA*dG*d[5mC]*dG*dT*dA*dA*dG*e[5mC]*e[5mC]*eA*eA*e[5mC]; antisense) [ISIS 131415] |  | % Inhib. of mouse PI3K p85 mRNA levels (mouse PI3K p85): at least 60%
cgatctctcggtactcagct (e[5mC]*eG*eA*eT*e[5mC]*dT*d[5mC]*dT*d[5mC]*dG*dG*dT*dA*d[5mC]*dT*e[5mC]*eA*eG*e[5mC]*eT; antisense) [ISIS 131420] |  | % Inhib. of mouse PI3K p85 mRNA levels (mouse PI3K p85): at least 60%
131417 (antisense eG*eG*eT*eG*eT*dA*dA*dG*dA*dG*dT*dG*dT*dA*dA*eT*e[5mC]*eG*e[5mC]*e[5mC]) [compound 131417] |  | % Inhib. of mouse PI3K p85 mRNA levels (mouse PI3K p85): 78%
gcatcaatgttctctcaaag (eG*e[5mC]*eA*eT*e[5mC]*dA*dA*dT*dG*dT*dT*d[5mC]*dT*d[5mC]*dT*e[5mC]*eA*eA*eA*eG; antisense) [ISIS 131426] |  | % Inhib. of mouse PI3K p85 mRNA levels (mouse PI3K p85): at least 60%
28054 (antisense e[5mC]*e[5mC]*eT*eT*dC*dA*dG*dC*dA*dA*dA*dA*dC*dA*eA*eA*eA*e[5mC]) [compound 28054] | 0% | 
28039 (antisense e[5mC]*eT*eT*eT*dG*dT*dT*dT*dC*dG*dG*dT*dT*dG*e[5mC]*eT*eG*e[5mC]) [compound 28039] | 46% | 
28023 (antisense eG*e[5mC]*eT*eT*dG*dA*dA*dG*dA*dA*dA*dT*dG*dT*eT*eT*eT*eA) [compound 28023] | 43% | 
28055 (antisense eA*eA*e[5mC]*eT*dG*dA*dA*dA*dT*dA*dA*dC*dA*dA*e[5mC]*eT*eT*eA) [compound 28055] | 14% | 
27999 (antisense CTTTGTTTCGGTTGCTGC; DNA, all phosphorothioate, methylation of C not given here) [compound 27999] |  | % Inhibition of PI3K p85 mRNA levels (human PI3K p85 RNA; [2]): 36%
28008 (antisense CTGCCTCTCTCTCCTCCG; DNA, all phosphorothioate, methylation of C not given here) [compound 28008] |  | % Inhibition of PI3K p85 mRNA levels (human PI3K p85 RNA; [2]): 0%
28022 (antisense eA*eT*eT*eT*dC*dA*dC*dT*dG*dT*dA*dA*dA*dC*eG*eG*e[5mC]*eT) [compound 28022] | 69% | 
27991 (antisense CCGCTCTTGGGTCTGGCA; DNA, all phosphorothioate, methylation of C not given here) [compound 27991] |  | % Inhibition of PI3K p85 mRNA levels (human PI3K p85 RNA; [2]): 71%
28042 (antisense e[5mC]*eT*eT*eT*dA*dC*dT*dT*dC*dG*dC*dC*dG*dT*e[5mC]*e[5mC]*eA*e[5mC]) [compound 28042] | 0% | 
27985 (antisense GTTCATTCCATTCAGTTG; DNA, all phosphorothioate, methylation of C not given here) [compound 27985] |  | % Inhibition of PI3K p85 mRNA levels (human PI3K p85 RNA; [2]): 13%
28040 (antisense e[5mC]*e[5mC]*eT*eG*dT*dT*dT*dA*dC*dT*dG*dC*dT*dC*eT*e[5mC]*e[5mC]*e[5mC]) [compound 28040] | 0% | 
28050 (antisense eT*eG*eT*e[5mC]*dT*dG*dG*dG*dT*dC*dC*dA*dC*dC*eG*eT*eG*e[5mC]) [compound 28050] | 57% | 
27983 (antisense GCTTGAAGAAATGTTTTA; DNA, all phosphorothioate, methylation of C not given here) [compound 27983] |  | % Inhibition of PI3K p85 mRNA levels (human PI3K p85 RNA; [2]): 0%
28025 (antisense eG*eT*eT*e[5mC]*dA*dT*dT*dC*dC*dA*dT*dT*dC*dA*eG*eT*eT*eG) [compound 28025] | 22% | 
28019 (antisense eT*eT*e[5mC]*eA*dA*dT*dG*dG*dC*dT*dT*dC*dC*dA*e[5mC]*eG*eA*eG) [compound 28019] | 6% | 
28048 (antisense e[5mC]*eT*eG*e[5mC]*dC*dT*dC*dT*dC*dT*dC*dT*dC*dC*eT*e[5mC]*e[5mC]*eG) [compound 28048] | 0% | 
28031 (antisense e[5mC]*e[5mC]*eG*e[5mC]*dT*dC*dT*dT*dG*dG*dG*dT*dC*dT*eG*eG*e[5mC]*eA) [compound 28031] | 15% | 

Substance | % Inhibition of PI3K p85 mRNA levels (human PI3K p85 RNA; [1]) | further results
28053 (antisense eT*eT*e[5mC]*eT*dG*dG*dC*dA*dC*dT*dT*dT*dC*dT*eA*eT*eG*eA) [compound 28053] | 0% | 
28001 (antisense CCACCACTACAGAGCAGG; DNA, all phosphorothioate, methylation of C not given here) [compound 28001] |  | % Inhibition of PI3K p85 mRNA levels (human PI3K p85 RNA; [2]): 0%
28028 (antisense eA*eT*eT*e[5mC]*dA*dG*dC*dA*dT*dT*dT*dT*dG*dT*eA*eA*eG*eG) [compound 28028] | 0% | 
27980 (antisense AATTCTGCCAGGTTGCTG; DNA, all phosphorothioate, methylation of C not given here) [compound 27980] |  | % Inhibition of PI3K p85 mRNA levels (human PI3K p85 RNA; [2]): 0%
28027 (antisense eT*eT*eA*eT*dT*dC*dA*dT*dA*dC*dC*dG*dT*dT*eG*eT*eT*eG) [compound 28027] | 45% | 
27987 (antisense TTATTCATACCGTTGTTG; DNA, all phosphorothioate, methylation of C not given here) [compound 27987] |  | % Inhibition of PI3K p85 mRNA levels (human PI3K p85 RNA; [2]): 4%
28049 (antisense e[5mC]*e[5mC]*eA*eG*dG*dC*dT*dA*dA*dA*dC*dC*dA*dG*eG*e[5mC]*eT*eG) [compound 28049] | 24% | 
28021 (antisense eG*eT*eA*eA*dG*dT*dC*dC*dA*dG*dG*dA*dG*dA*eT*eA*eG*e[5mC]) [compound 28021] | 43% | 
28052 (antisense eA*eT*eT*e[5mC]*dT*dC*dC*dC*dA*dA*dA*dG*dC*dG*eT*e[5mC]*e[5mC]*e[5mC]) [compound 28052] | 55% | 
28012 (antisense ATTCTCCCAAAGCGTCCC; DNA, all phosphorothioate, methylation of C not given here) [compound 28012] |  | % Inhibition of PI3K p85 mRNA levels (human PI3K p85 RNA; [2]): 19%
28051 (antisense eG*eA*e[5mC]*eG*dT*dG*dC*dC*dT*dT*dT*dC*dT*dG*e[5mC]*eT*eA*e[5mC]) [compound 28051] | 53% | 
28030 (antisense eA*eT*eT*eT*dC*dC*dT*dG*dG*dG*dA*dT*dG*dT*eG*e[5mC]*eG*eG) [compound 28030] | 74% | 
28014 (antisense CCTTCAGCAAAACAAAAC; DNA, all phosphorothioate, methylation of C not given here) [compound 28014] |  | % Inhibition of PI3K p85 mRNA levels (human PI3K p85 RNA; [2]): 24%
28041 (antisense e[5mC]*e[5mC]*eA*e[5mC]*dC*dA*dC*dT*dA*dC*dA*dG*dA*dG*e[5mC]*eA*eG*eG) [compound 28041] | 38% | 
28043 (antisense eA*eA*eA*eG*dC*dC*dA*dT*dA*dG*dC*dC*dA*dG*eT*eT*eG*e[5mC]) [compound 28043] | 10% | 
28035 (antisense eA*eT*eT*eG*dG*dT*dC*dT*dC*dT*dC*dG*dT*dC*eT*eT*eT*e[5mC]) [compound 28035] | 0% | 
28005 (antisense GCCCTTTGCTTTCCAGAG; DNA, all phosphorothioate, methylation of C not given here) [compound 28005] |  | % Inhibition of PI3K p85 mRNA levels (human PI3K p85 RNA; [2]): 0%
28037 (antisense eT*eT*eG*e[5mC]*dC*dC*dA*dA*dC*dC*dA*dC*dT*dC*eG*eT*eT*e[5mC]) [compound 28037] | 28% | 
28018 (antisense eG*e[5mC]*eT*eT*dC*dC*dT*dG*dT*dC*dC*dA*dT*dC*eA*e[5mC]*eT*eG) [compound 28018] | 47% | 
28006 (antisense ATCAGACTGGAGAGGAGC; DNA, all phosphorothioate, methylation of C not given here) [compound 28006] |  | % Inhibition of PI3K p85 mRNA levels (human PI3K p85 RNA; [2]): 27%
